From patent publication US20020183519A1, “Antithrombotic carboxylic acid amides” (priority 2001, published 2002)

molecular target: T1, human factor Xa (Homo sapiens, UniProt P00742); test: Inhibition of factor Xa, enzyme-kinetic measurement with chromogenic substrate; assay type: biochemical; conditions: human factor Xa (Roche) 0.175 U/ml, substrate Chromozym X 200 μMol/l, pH 8.0, 37° C., 405 nm
T1 construct: released from the colourless chromogenic substrate by human factor Xa; purchased Roche
T1 sequence (P00742 235-488 limits assumed): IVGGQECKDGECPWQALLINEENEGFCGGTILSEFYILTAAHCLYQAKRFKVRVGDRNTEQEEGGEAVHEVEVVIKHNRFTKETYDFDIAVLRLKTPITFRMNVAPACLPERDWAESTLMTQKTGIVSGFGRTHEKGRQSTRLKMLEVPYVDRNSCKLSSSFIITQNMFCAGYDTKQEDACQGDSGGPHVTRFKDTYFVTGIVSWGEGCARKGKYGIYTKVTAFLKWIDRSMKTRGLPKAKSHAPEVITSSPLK
T1 sequence (P00742 41-179 partner limits assumed): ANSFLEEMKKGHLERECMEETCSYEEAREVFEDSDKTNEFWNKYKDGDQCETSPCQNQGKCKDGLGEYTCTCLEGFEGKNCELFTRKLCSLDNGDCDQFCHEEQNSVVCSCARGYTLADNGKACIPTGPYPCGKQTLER
Description: Method: Enzyme-kinetic measurement with chromogenic substrate. The quantity of p-nitroaniline (pNA) released from the colourless chromogenic substrate by human factor Xa is determined photometrically at 405 nm. It is proportional to the activity of the enzyme used. The inhibition of the enzyme activity by the test substance (in relation to the solvent control) is determined at various concentrations of test substance and from this the IC50 is calculated, as the concentration which inhibits the factor Xa used by 50%.
Material: Tris(hydroxymethyl)-aminomethane buffer (100 mmol) and sodium chloride (150 mmol), pH 8.0
Factor Xa (Roche), spec. activity: 10 U/0.5 ml, final concentration: 0.175 U/ml for each reaction mixture
Substrate Chromozym X (Roche), final concentration: 200 μMol/l for each reaction mixture
Procedure: 10 μl of a 23.5-times concentrated starting solution of the test substance or solvent (control), 175 μl of tris(hydroxymethyl)-aminomethane buffer and 25 μl of a 1.65 U/ml Factor Xa working solution are incubated for 10 minutes at 37° C. After the addition of 25 μl of Chromozym X working solution ([…]) the sample is measured in a photometer (SpectraMax 250) at 405 nm for 150 seconds at 37° C.
1. Determining the maximum increase (deltaOD/minutes) over 3 measuring points.
2. Determining the % inhibition based on the solvent control.
3. Plotting a dosage/activity curve (% inhibition vs substance concentration).
4. Determining the IC50 by interpolating the X value (substance concentration) of the dosage/activity curve at Y=50% inhibition.

Structure (SMILES)	IC50 [µM]
Cc1cc(NC(=O)Cc2cc(C(=N)N)ccc2O)ccc1-n1c(N2CCCC2)nc2ccccc21 [(1)]	0.14
Cc1cc(NC(=O)Cc2cc(C(=N)N)ccc2O)ccc1-n1cnc2c1CCCC2 [(2)]	0.081
Cc1cc(NC(=O)Cc2cc(C(=N)N)ccc2O)ccc1-c1ncnc2c1CCC2 [(3)]	0.062
Cc1nn(-c2ccc(C(=O)NCc3cc(C(=N)N)ccc3O)cc2C(F)(F)F)c2c1CCC2 [(4)]	0.015
CNC(=O)c1nn(-c2ccc(C(=O)NCc3cc(C(=N)N)ccc3O)cc2C(F)(F)F)c2c1CCC2 [(5)]	0.016
N=C(N)c1ccc(O)c(CNC(=O)c2ccc(-n3nc(CN)c4c3CCC4)c(C(F)(F)F)c2)c1 [(6)]	0.007

Now from value to molecule:

IC50 [µM]	Structure (SMILES)
0.0075	CCOC(=O)CC(NC(=O)c1ccc(-n2nc(CN)c3c2CCC3)c(C(F)(F)F)c1)c1cccc(C(=N)N)c1 (stereo not drawn) [(7)]
0.028	CCOC(=O)CC(NC(=O)c1ccc(-n2cnc3c2CCCC3)c(C(F)(F)F)c1)c1cccc(C(=N)N)c1 (stereo not drawn) [(8)]
0.024	COC(=O)c1nn(-c2ccc(C(=O)NCc3cc(C(=N)N)ccc3O)cc2C(F)(F)F)c2c1CCC2 [(9)]
